Read-outs that look alike come from different tables or passages of the source.
What was measured:
[1] = Pharmacokinetic study after oral dosing, dog; conditions: in vivo, solution in 20% kleptose in water, Dog beagle male, Fasted, 5 mL/kg; for AUC(0-t): read-out: AUC0-24 h; for concentration at 24 h: read-out: C24 h
Description: (§1) The pharmacokinetic profile of (S)-4-(2,2-difluoro-7-((5-methoxy-7-methyl-1H-indol-4-yl)methyl)-7-azaspiro[3.5]nonan-6-yl)benzoic acid was assessed in rats, dogs or non-human primates (NHPs) as the amorphous compound as a solution in 20% kleptose in water and as a suspension of Form A in 0.5% methocel+0.1% tween 80 in water.
(§2) Amorphous (S)-4-(2,2-difluoro-7-((5-methoxy-7-methyl-1H-indol-4-yl)methyl)-7-azaspiro[3.5]nonan-6-yl)benzoic acid was weighed into a glass vial with a magnetic stir bar to give formulations at dose concentrations of 0.1-1000 mg/kg. Approx. ⅓ the final volume of 20% kleptose (hydroxypropyl β-cyclodextrin, Aldrich, CAS #128446-35-5) in water was added to the vial (to afford either a 5 mL/kg or 10 mL/kg dose volume, depending on the species). The mixture was basified to a pH of 8.5 to 10 using dropwise addition of 2-5 M aqueous NaOH solution, with pH monitoring. The suspension was stirred, vortexed, and sonicated for 15-20 minutes to afford a homogenous mixture. The second ⅓ of the final volume of 20% kleptose was added to the vial and further stirred, vortexed, and sonicated for 15-20 minutes to afford a homogenous mixture. The pH was monitored and further pH adjustment to pH 8.5 to 10, if necessary, can be applied. The final ⅓ the final volume of 20% kleptose was added to the vial and further stirred, vortexed, and sonicated for 15-20 minutes to afford a homogenous solution. The pH of the solution was adjusted to a pH of 7.5 to 8.0 with dropwise addition of 1.0 M aqueous HCl solution with gentle stirring. The formulation should remain in solution.

[2] = Pharmacokinetic study after oral dosing, non-human primate; conditions: cynomolgus monkey, in vivo, solution in 20% kleptose in water, Cyno male, 30 mg/kg, Fed, 5 mL/kg
Description: as §1, §2

[3] = Pharmacokinetic study after oral dosing, rat; type: in vivo, SD Rat; conditions: male, SD (Sprague-Dawley), rat, in vivo, po, solution in 20% kleptose in water, SD Rat male, Fed, 10 mL/kg; for AUC(0-t) / concentration at 24 h: oral; for AUC(0-t): read-out: AUC0-24 h; for concentration at 24 h: read-out: C24 h
Description: as §1, §2
Form A crystalline (S)-4-(2,2-difluoro-7-((5-methoxy-7-methyl-1H-indol-4-yl)methyl)-7-azaspiro[3.5]nonan-6-yl)benzoic acid was weighed into a glass vial with a magnetic stir bar to give formulations at dose concentrations of 0.1-1000 mg/kg. The crystalline material should preferably have a particle size with a D50 below 50 μm, and ideally with a D50 below 5 μm. The desired volume of 0.5% methocel (viscosity 400 cP, Aldrich, CAS #9004-67-5)/0.1% tween-80 (Aldrich, CAS #9005-65-6) was added (to afford a 5 mL/kg dose volume). The contents of the vial were stirred at 400-500 rpm on a stir-plate. Gentle vortex or bath sonication can be applied to break down any large clumps. The vial should be mixed well to ensure homogeneity right before animal dosing.

[4] = Solubility in Simulated Fluids at 37° C.; type: physicochemical; conditions: for solubility at 24 h / solubility at 30 min: 37 °C, thermodynamic from solid; for solubility at 24 h: read-out: Solubility (mg/mL) 24 h; for solubility at 30 min: read-out: Solubility (mg/mL) 30 min
Description: Solubility data of Form A (S)-4-(2,2-difluoro-7-((5-methoxy-7-methyl-1H-indol-4-yl)methyl)-7-azaspiro[3.5]nonan-6-yl)benzoic acid, Form B (S)-4-(2,2-difluoro-7-((5-methoxy-7-methyl-1H-indol-4-yl)methyl)-7-azaspiro[3.5]nonan-6-yl)benzoic acid p-toluene sulfonic acid salt, Form C (S)-4-(2,2-difluoro-7-((5-methoxy-7-methyl-1H-indol-4-yl)methyl)-7-azaspiro[3.5]nonan-6-yl)benzoic acid p-toluene sulfonic acid salt, and Form D (S)-4-(2,2-difluoro-7-((5-methoxy-7-methyl-1H-indol-4-yl)methyl)-7-azaspiro[3.5]nonan-6-yl)benzoic acid hydrochloride salt in Simulated Fluids at 37° C.

[5] = Dynamic vapor sorption (DVS) mass change; type: physicochemical; conditions: 95% RH at 25° C.
Description: [table] The mass change by DVS isotherm (2 cycles 40-0-95-0-40% RH) are in the tables below. The mass change is based on the dry weight of each.

[6] = after 12 weeks of treatment; cited from earlier work
[7] = fassgf or other biorelevant, FaSSGF, 24 h

`COc1cc(C)c2[nH]ccc2c1CN1CCC2(C[C@H]1c1ccc(C(=O)O)cc1)CC(F)(F)C2` [(S)-4-(2,2-difluoro-7-((5-methoxy-7-methyl-1H-indol-4-yl)methyl)-7-azaspiro[3.5]nonan-6-yl)benzoic acid] showed a Cmax ([1]; 2 mg/kg) of 3.64 µM, an AUC(0-t) ([1]; 2 mg/kg) of 54.3 µM·h and a concentration at 24 h ([1]; 2 mg/kg) of 1.73 µM. For the same molecule, the Cmax ([1]; 100 mg/kg) was 139 µM, the AUC(0-t) ([1]; 100 mg/kg) was 1320 µM·h and the concentration at 24 h ([1]; 100 mg/kg) was 18.8 µM. For the same molecule, the Cmax [2] was 8.6 µM, the AUC(0-t) ([2]; read-out: AUC0-24 h) was 96.1 µM·h and the concentration at 24 h ([2]; read-out: C24 h) was 1.75 µM. The AUC(0-t) ([3]; 2 mg/kg, 2 mg/kg) was 20.5 µM·h, the concentration at 24 h ([3]; 2 mg/kg, 2 mg/kg) was 0.21 µM and the Cmax ([3]; 2 mg/kg) was 2.42 µM. It also gave an AUC(0-t) ([3]; 300 mg/kg, 300 mg/kg) of 1110 µM·h, a concentration at 24 h ([3]; 300 mg/kg, 300 mg/kg) of 18 µM and a Cmax ([3]; 300 mg/kg) of 94 µM.

In the case of `COc1cc(C)c2[nH]ccc2c1CN1CCC2(C[C@H]1c1ccc(C(=O)O)cc1)CC(F)(F)C2.Cc1ccc(S(=O)(=O)O)cc1` [Form C, (S)-4-(2,2-difluoro-7-((5-methoxy-7-methyl-1H-indol-4-yl)methyl)-7-azaspiro[3.5]nonan-6-yl)benzoic acid p-toluene sulfonic acid salt], the solubility at 24 h [4, 7] is reported as 0.85 mg/mL, the “pH at 24 h” value ([4]; FaSSGF) is reported as 1.56 and the “Solubility (mg/mL) 30 min” value ([4]; FaSSGF, 30 min) is reported as 0.87 mg/mL. The “pH at 24 h” value ([4]; FaSSIF) was 6.25, the “Solubility (mg/mL) 30 min” value ([4]; FaSSIF, 30 min) was 1.68 mg/mL and the “Solubility (mg/mL) 24 h” value ([4]; FaSSIF, 24 h) was 0.13 mg/mL. The “pH at 24 h” value ([4]; FeSSIF) was 4.97, the “Solubility (mg/mL) 30 min” value ([4]; FeSSIF, 30 min) was 1.63 mg/mL and the “Solubility (mg/mL) 24 h” value ([4]; FeSSIF, 24 h) was 1.69 mg/mL. For the same molecule, the “pH at 24 h” value ([4]; Water, initial pH 7.00) was 3.37, the “Solubility (mg/mL) 30 min” value ([4]; Water, initial pH 7.00, 30 min) was 0.88 mg/mL and the “Solubility (mg/mL) 24 h” value ([4]; Water, initial pH 7.00, 24 h) was 1.12 mg/mL. For the same molecule, the “moisture absorbed by DVS (absorbs up to)” value [5] was “up to 0.4%”.

In the case of `CCO[C@H]1CCN(Cc2c(OC)cc(C)c3[nH]ccc23)[C@H](c2ccc(C(=O)O)cc2)C1` [iptacopan], the “efficacy in Phase II clinical trial in C3G” value [6] is given as “reduced proteinuria”.

For `COc1cc(C)c2[nH]ccc2c1CN1CCC2(C[C@H]1c1ccc(C(=O)O)cc1)CC(F)(F)C2.Cl` [Form D, (S)-4-(2,2-difluoro-7-((5-methoxy-7-methyl-1H-indol-4-yl)methyl)-7-azaspiro[3.5]nonan-6-yl)benzoic acid hydrochloride salt], the solubility at 30 min ([4]; fassgf or other biorelevant, FaSSGF, 30 min) was 2.25 mg/mL, the solubility at 24 h [4, 7] was over 2 mg/mL and the solubility at 30 min ([4]; fassif, FaSSIF, 30 min) was 2.19 mg/mL. It also gave a solubility at 24 h ([4]; fassif, FaSSIF, 24 h) of over 2 mg/mL, a solubility at 30 min ([4]; fessif, FeSSIF, 30 min) of 2.19 mg/mL and a solubility at 24 h ([4]; fessif, FeSSIF, 24 h) of 2.33 mg/mL. The solubility at 30 min ([4]; pH 7, water, Water, initial pH 7.00, 30 min) was 2.08 mg/mL, the solubility at 24 h ([4]; pH 7, water, Water, initial pH 7.00, 24 h) was over 2 mg/mL and the “pH at 24 h” value ([4]; FaSSGF) was 1.57. The “pH at 24 h” value ([4]; FaSSIF) was 6.17, the “pH at 24 h” value ([4]; FeSSIF) was 4.95 and the “pH at 24 h” value ([4]; Water, initial pH 7.00) was 3.13.

Source: patent US20260159497A1, “SOLID FORMS OF A COMPLEMENT FACTOR B INHIBITOR” (Novartis Pharma AG, priority 2022, published 2026)
